Results as given in ChEMBL document CHEMBL1777747, “Design and synthesis of an ER-specific fluorescent probe based on carboxylesterase activity with quinone methide cleavage process” (Bioorg Med Chem Lett, 2011).

Columns and labels:
Sus scrofa = species: Sus scrofa; test: Activity at porcine liver esterase assessed as amount of enzyme required to liberate 1 umol of resorufin/min from compound by fluorescence assay
Cocaine esterase [1] = target: T1, Cocaine esterase (Homo sapiens, UniProt O00748); test: Activity at carboxylesterase in human HT-1080 cells assessed as accumulation of resorufin in nucleus at 50 uM after 120 mins by phase contrast microscopic analysis; type: ADME, cell-based; details: ht-1080, 2 h
T1 sequence (O00748 whole entry): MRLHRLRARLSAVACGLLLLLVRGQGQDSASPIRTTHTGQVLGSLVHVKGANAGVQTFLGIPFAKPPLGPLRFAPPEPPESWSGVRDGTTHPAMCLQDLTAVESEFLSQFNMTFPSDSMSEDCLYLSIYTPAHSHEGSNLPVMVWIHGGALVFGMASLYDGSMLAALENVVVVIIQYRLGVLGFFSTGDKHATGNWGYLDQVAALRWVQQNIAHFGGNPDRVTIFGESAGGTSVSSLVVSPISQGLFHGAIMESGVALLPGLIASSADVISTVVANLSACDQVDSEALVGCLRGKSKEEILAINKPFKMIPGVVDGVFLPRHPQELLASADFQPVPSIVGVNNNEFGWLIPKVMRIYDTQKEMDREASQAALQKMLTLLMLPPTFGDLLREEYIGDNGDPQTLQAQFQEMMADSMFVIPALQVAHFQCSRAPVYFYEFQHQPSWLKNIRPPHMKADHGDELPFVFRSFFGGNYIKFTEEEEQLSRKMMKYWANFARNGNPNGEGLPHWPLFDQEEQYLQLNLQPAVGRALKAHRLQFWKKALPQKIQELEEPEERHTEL

[2] = Activity at carboxylesterase in african green monkey COS1 cells assessed as accumulation of resorufin in nucleus at 50 uM after 120 mins by phase contrast microscopic analysis; type: ADME, cell-based; details: chlorocebus aethiops, cos-1, 2 h
Cocaine esterase [3] = target: T1, Cocaine esterase; test: Activity at carboxylesterase in human HT-1080 cells assessed as accumulation of resorufin in endoplasmic reticulum at 50 uM after 120 mins by phase contrast microscopic analysis; type: ADME, cell-based; details: ht-1080, 2 h
[4] = Activity at carboxylesterase in african green monkey COS1 cells assessed as accumulation of resorufin in endoplasmic reticulum at 50 uM after 120 mins by phase contrast microscopic analysis; type: ADME, cell-based; details: chlorocebus aethiops, cos-1, 2 h
HT-1080 = test: Cytotoxicity against human HT1080 cells by trypan blue method; type: cell-based
COS-1 = test: Cytotoxicity against african green monkey COS1 cells by trypan blue method; type: cell-based; details: chlorocebus aethiops

CCCC(=O)Oc1ccc(COc2ccc3nc4ccc(=O)cc-4oc3c2)cc1
Activity (Sus scrofa): 0.05 U/mg | Activity (Cocaine esterase [1]): Active | Activity [2]: Active | Activity (Cocaine esterase [3]): Active | Activity [4]: Active | Activity (HT-1080): Non-toxic | Activity (COS-1): Non-toxic
